ChEMBL document CHEMBL1201862, “PubChem BioAssay data set” (2004)
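Tested at 5 concentrations; 48 h exposure; 96-well plates; endpoints linearly interpolated, else capped at highest concentration. Here, GI50 denotes the concentration required for 50% inhibition of growth.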 Calls of active or inactive are those of the source. Rule as the data show it: active = GI50 up to about 1.1 µM and inactive = higher.

How the values were obtained:
Assay in all cases: NCI tumour cell line growth inhibition, 48 h
CAKI-1 = tested on: CAKI-1
HL-60 = tested on: HL-60
HT-29 = tested on: HT-29
MDA-MB-231 = tested on: MDA-MB-231
MDA-N = tested on: MDA-N
MOLT-4 = tested on: MOLT-4
NCI-H226 = tested on: NCI-H226
OVCAR-3 = tested on: OVCAR-3
SF-268 = tested on: SF-268
SK-OV-3 = tested on: SK-OV-3
SNB-19 = tested on: SNB-19
SNB-75 = tested on: SNB-75
SW-620 = tested on: SW-620
T47D = tested on: T47D
U-251 = tested on: U-251
LOX IMVI = tested on: LOX IMVI
RXF 393 = tested on: RXF 393

Row | SMILES | GI50 (CAKI-1) | GI50 (HL-60) | GI50 (HT-29) | GI50 (MDA-MB-231) | GI50 (MDA-N) | GI50 (MOLT-4) | GI50 (NCI-H226) | GI50 (OVCAR-3) | GI50 (SF-268) | GI50 (SK-OV-3) | GI50 (SNB-19) | GI50 (SNB-75) | GI50 (SW-620) | GI50 (T47D) | GI50 (U-251) | GI50 (LOX IMVI) | GI50 (RXF 393)
1 | C=CC1OC(CCCOC(=O)C(C)(C)C)O[C@@H]1CC (some centres not stated) | > 100 µM (inactive) | 7.38 µM (inactive) | > 100 µM (inactive) | > 100 µM (inactive) | > 100 µM (inactive) | > 100 µM (inactive) | > 100 µM (inactive) | > 100 µM (inactive) | > 100 µM (inactive) | > 100 µM (inactive) | > 100 µM (inactive) | > 100 µM (inactive) | > 100 µM (inactive) | > 100 µM (inactive) | > 100 µM (inactive) | – | –
2 | CCN1c2ccccc2NC(=S)c2c(-c3ccccc3)n[nH]c21 | 52.8 µM (inactive) | 13.6 µM (inactive) | 42.7 µM (inactive) | 19.3 µM (inactive) | 16.4 µM (inactive) | 17 µM (inactive) | – | 53.3 µM (inactive) | 27.4 µM (inactive) | 34 µM (inactive) | – | 55.7 µM (inactive) | 27 µM (inactive) | 17.9 µM (inactive) | 20.9 µM (inactive) | 30.5 µM (inactive) | 27.7 µM (inactive)
3 | O=S(=O)(c1ccccc1)C1CC(c2nc3ccccc3[nH]2)=NO1 (configuration not stated) | 97.7 µM (inactive) | – | > 100 µM (inactive) | > 100 µM (inactive) | > 100 µM (inactive) | 39.1 µM (inactive) | > 100 µM (inactive) | 89.9 µM (inactive) | > 100 µM (inactive) | > 100 µM (inactive) | > 100 µM (inactive) | > 100 µM (inactive) | 43.8 µM (inactive) | > 100 µM (inactive) | > 100 µM (inactive) | > 100 µM (inactive) | 83 µM (inactive)
4 | CCOC(=O)c1nc2ccccc2nc1Nc1ccc(C(=O)OC)s1 | > 100 µM (inactive) | > 100 µM (inactive) | > 100 µM (inactive) | > 100 µM (inactive) | > 100 µM (inactive) | > 100 µM (inactive) | – | > 100 µM (inactive) | > 100 µM (inactive) | – | > 100 µM (inactive) | > 100 µM (inactive) | > 100 µM (inactive) | > 100 µM (inactive) | > 100 µM (inactive) | > 100 µM (inactive) | –
5 | Nc1ccn(C2OC(CO)C(O)C2(F)F)c(=O)n1 (configuration not stated) | 0.108 µM (active) | 0.0249 µM (active) | 0.492 µM (active) | 0.828 µM (active) | 0.237 µM (active) | 0.091 µM (active) | 0.706 µM (active) | 1.88 µM (inactive) | 0.226 µM (active) | 0.667 µM (active) | 0.129 µM (active) | – | 0.759 µM (active) | 0.387 µM (active) | 0.162 µM (active) | 0.157 µM (active) | 0.214 µM (active)
6 | CCOC(=O)c1c(NC(=O)Nc2ccccc2)c(C(N)=O)c2n1CCCCC2 | > 100 µM (inactive) | > 100 µM (inactive) | > 100 µM (inactive) | > 100 µM (inactive) | – | > 100 µM (inactive) | > 100 µM (inactive) | – | > 100 µM (inactive) | > 100 µM (inactive) | > 100 µM (inactive) | > 100 µM (inactive) | > 100 µM (inactive) | > 100 µM (inactive) | > 100 µM (inactive) | > 100 µM (inactive) | > 100 µM (inactive)
7 | CC(C)(C)OC(=O)NC(Cc1ccc(OCc2ccccc2)cn1)C(=O)N1CCCC1 (configuration not stated) | > 100 µM (inactive) | 49.1 µM (inactive) | 54 µM (inactive) | 80 µM (inactive) | 55.8 µM (inactive) | 34.8 µM (inactive) | – | 25.6 µM (inactive) | 89.1 µM (inactive) | – | > 100 µM (inactive) | 77.3 µM (inactive) | > 100 µM (inactive) | 27.4 µM (inactive) | 86.7 µM (inactive) | 72.1 µM (inactive) | 69.3 µM (inactive)
8 | CCOP(=O)(COCCn1nc(Br)c(=O)[nH]c1=O)OCC | > 100 µM (inactive) | > 100 µM (inactive) | – | > 100 µM (inactive) | > 100 µM (inactive) | > 100 µM (inactive) | > 100 µM (inactive) | > 100 µM (inactive) | > 100 µM (inactive) | – | > 100 µM (inactive) | > 100 µM (inactive) | > 100 µM (inactive) | > 100 µM (inactive) | > 100 µM (inactive) | > 100 µM (inactive) | > 100 µM (inactive)
9 | NNC(N)Nc1ccccc1 (configuration not stated) | > 100 µM (inactive) | > 100 µM (inactive) | > 100 µM (inactive) | > 100 µM (inactive) | > 100 µM (inactive) | > 100 µM (inactive) | > 100 µM (inactive) | > 100 µM (inactive) | > 100 µM (inactive) | > 100 µM (inactive) | > 100 µM (inactive) | – | > 100 µM (inactive) | > 100 µM (inactive) | > 100 µM (inactive) | – | > 100 µM (inactive)
10 | COc1cc(C2S/C(=C/c3ccccc3)C(=O)N2c2cccc(NC(C)=O)c2)cc(OC)c1OC (configuration not stated) | 25.9 µM (inactive) | – | 21.1 µM (inactive) | 13.9 µM (inactive) | 26.7 µM (inactive) | 30.6 µM (inactive) | > 100 µM (inactive) | – | 24.1 µM (inactive) | 56 µM (inactive) | 58.7 µM (inactive) | 4.02 µM (inactive) | – | 15.4 µM (inactive) | 17.6 µM (inactive) | 21.5 µM (inactive) | 28.8 µM (inactive)
11 | CN1C[C@H]2[C@@H](C1=O)[C@H](c1ccc([N+](=O)[O-])cc1)ON2C | > 100 µM (inactive) | > 100 µM (inactive) | > 100 µM (inactive) | > 100 µM (inactive) | > 100 µM (inactive) | > 100 µM (inactive) | > 100 µM (inactive) | > 100 µM (inactive) | – | > 100 µM (inactive) | > 100 µM (inactive) | – | > 100 µM (inactive) | > 100 µM (inactive) | > 100 µM (inactive) | > 100 µM (inactive) | –
12 | Cc1ccc(C2=C(C#N)C(N)OC3=C2COc2ccccc23)cc1 (configuration not stated) | – | > 100 µM (inactive) | 4.85 µM (inactive) | 23.7 µM (inactive) | 44.2 µM (inactive) | 16.6 µM (inactive) | > 100 µM (inactive) | 17 µM (inactive) | 27 µM (inactive) | 25.9 µM (inactive) | 19 µM (inactive) | – | > 100 µM (inactive) | – | 19.5 µM (inactive) | 88.3 µM (inactive) | –
13 | O=C1/C(=C\c2cccc(Oc3ccccc3)c2)SC(c2ccccc2)N1Cc1ccccc1 (configuration not stated) | 49.7 µM (inactive) | 23.3 µM (inactive) | 20.2 µM (inactive) | 32.9 µM (inactive) | 17 µM (inactive) | 30.1 µM (inactive) | 22.6 µM (inactive) | 23.5 µM (inactive) | 35 µM (inactive) | 19.1 µM (inactive) | 24.7 µM (inactive) | – | 38.3 µM (inactive) | 26.2 µM (inactive) | 18.4 µM (inactive) | 15.5 µM (inactive) | 20.1 µM (inactive)
14 | CCOC(=O)c1ccc(Nc2nc3cc(C(F)(F)F)ccc3nc2C(=O)OCC)cc1 | 23.5 µM (inactive) | > 100 µM (inactive) | 84.1 µM (inactive) | 74.5 µM (inactive) | > 100 µM (inactive) | > 100 µM (inactive) | – | 58.6 µM (inactive) | 97.1 µM (inactive) | 44.5 µM (inactive) | 22.6 µM (inactive) | 40.2 µM (inactive) | > 100 µM (inactive) | 69.3 µM (inactive) | 19.7 µM (inactive) | 42.8 µM (inactive) | > 100 µM (inactive)
15 | c1ccc2c(c1)N=C(NC1CCCCC1)CCN2 | > 100 µM (inactive) | > 100 µM (inactive) | 77.6 µM (inactive) | > 100 µM (inactive) | > 100 µM (inactive) | 63.2 µM (inactive) | > 100 µM (inactive) | > 100 µM (inactive) | > 100 µM (inactive) | > 100 µM (inactive) | > 100 µM (inactive) | 22 µM (inactive) | > 100 µM (inactive) | – | > 100 µM (inactive) | – | > 100 µM (inactive)
16 | Nc1cccc2nnccc12 | > 100 µM (inactive) | > 100 µM (inactive) | > 100 µM (inactive) | > 100 µM (inactive) | > 100 µM (inactive) | – | > 100 µM (inactive) | – | > 100 µM (inactive) | > 100 µM (inactive) | > 100 µM (inactive) | > 100 µM (inactive) | > 100 µM (inactive) | > 100 µM (inactive) | > 100 µM (inactive) | – | > 100 µM (inactive)
17 | Cc1cc(O)c(C(C)C)cc1SC#N | 15 µM (inactive) | 35.1 µM (inactive) | – | 18.5 µM (inactive) | – | 3.15 µM (inactive) | – | 15.5 µM (inactive) | 19.3 µM (inactive) | 21 µM (inactive) | – | 10.4 µM (inactive) | 17.3 µM (inactive) | 17.8 µM (inactive) | 16.9 µM (inactive) | 11.9 µM (inactive) | 15.5 µM (inactive)
18 | CC(=O)OC[C@H]1[C@@H]2C(CC[C@]13CO3)OC(=O)CC(C)[C@]2(C)CCc1ccoc1 (some centres not stated) | > 100 µM (inactive) | > 100 µM (inactive) | > 100 µM (inactive) | > 100 µM (inactive) | > 100 µM (inactive) | > 100 µM (inactive) | > 100 µM (inactive) | > 100 µM (inactive) | > 100 µM (inactive) | > 100 µM (inactive) | > 100 µM (inactive) | – | > 100 µM (inactive) | > 100 µM (inactive) | > 100 µM (inactive) | > 100 µM (inactive) | > 100 µM (inactive)
